Laboratory results published in patent US7566712B2, “Biaryl piperazinyl-pyridine analogues” (Neurogen Corporation, priority 2003, dated 2009).

What follows are compounds tested against T1, human capsaicin receptor (Homo sapiens, UniProt Q8NER1) (assay: Calcium mobilization assay, determination of antagonist activity (Example 6)). Conditions: Table II; IC50 determined as described in Example 6 (antagonist activity, calcium mobilization).
T1 construct: pBK-CMV expression construct encoding the full length human capsaicin receptor; expressed in transfected cells
Assay type: cell-based
How it was run: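 HEK293 clonal lines stably expressing full-length human capsaicin receptor, loaded with Fluo-3 AM in KRH buffer pH 7.4, 1–2 h at 37 °C. Compounds (1–5 μM final) preincubated 0.5–6 h at room temperature, then capsaicin at its EC50 added. FLIPR/Fluoroskan calcium signal; IC50 as 50% decrease of capsaicin response.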

T1 sequence (Q8NER1 whole entry): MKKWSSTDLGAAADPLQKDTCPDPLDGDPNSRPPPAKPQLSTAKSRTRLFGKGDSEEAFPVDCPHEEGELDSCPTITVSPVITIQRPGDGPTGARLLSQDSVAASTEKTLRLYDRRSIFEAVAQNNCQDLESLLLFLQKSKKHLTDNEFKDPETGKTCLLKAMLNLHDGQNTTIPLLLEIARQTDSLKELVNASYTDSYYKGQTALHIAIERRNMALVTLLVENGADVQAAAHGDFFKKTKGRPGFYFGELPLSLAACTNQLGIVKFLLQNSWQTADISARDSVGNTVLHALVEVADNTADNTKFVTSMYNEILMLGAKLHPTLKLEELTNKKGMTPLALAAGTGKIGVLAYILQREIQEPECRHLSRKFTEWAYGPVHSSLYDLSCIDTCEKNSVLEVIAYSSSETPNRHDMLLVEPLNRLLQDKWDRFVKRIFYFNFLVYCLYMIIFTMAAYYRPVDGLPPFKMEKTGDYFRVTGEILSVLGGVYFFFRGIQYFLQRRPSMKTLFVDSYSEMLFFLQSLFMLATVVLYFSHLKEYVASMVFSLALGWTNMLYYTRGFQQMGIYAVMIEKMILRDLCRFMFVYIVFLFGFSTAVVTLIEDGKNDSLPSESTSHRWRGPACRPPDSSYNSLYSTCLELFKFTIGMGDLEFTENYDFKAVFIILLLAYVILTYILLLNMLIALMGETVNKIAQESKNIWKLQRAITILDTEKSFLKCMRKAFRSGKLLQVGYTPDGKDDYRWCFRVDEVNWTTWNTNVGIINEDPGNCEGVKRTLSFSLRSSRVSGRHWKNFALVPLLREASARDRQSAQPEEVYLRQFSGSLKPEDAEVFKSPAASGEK

IC50, ≤ 1000 nM:
C[C@H]1CN(c2nccnc2Cl)CCN1c1cc(-c2ccc(F)c(Cl)c2)nc(Cl)n1 [Example 971, 2-chloro-4-(3-chloro-4-fluorophenyl)-6-[(2S)-4-(3-chloropyrazin-2-yl)-2-methylpiperazin-1-yl]pyrimidine]
COc1ncc(Cl)c(N2CCN(c3cc(-c4ccc(F)cc4)nc(N4CCOCC4)n3)[C@H](C)C2)n1 [Example 972, 4-[4-[(2R)-4-(5-chloro-2-methoxypyrimidin-4-yl)-2-methylpiperazin-1-yl]-6-(4-fluorophenyl)pyrimidin-2-yl]morpholine]

Same assay, conditions: Table II; determined as described in Example 6 (antagonist activity); "*" = 1 micromolar or less

IC50, ≤ 1000 nM:
C[C@H]1CN(c2nccnc2Cl)CCN1c1cc(-c2ccc(F)c(F)c2)nc(N2CCCC2)n1 [Example 937, 4-[(2S)-4-(3-chloropyrazin-2-yl)-2-methylpiperazin-1-yl]-6-(3,4-difluorophenyl)-2-pyrrolidin-1-ylpyrimidine]
CC1CCCN1c1nc(-c2ccc(F)c(F)c2)cc(N2CCN(c3nccnc3Cl)C[C@@H]2C)n1 (stereo partly drawn) [Example 938, 4-[(2S)-4-(3-chloropyrazin-2-yl)-2-methylpiperazin-1-yl]-6-(3,4-difluorophenyl)-2-(2-methylpyrrolidin-1-yl)pyrimidine]
C[C@@H]1CN(c2ncccc2Cl)CCN1c1cc(-c2ccc(F)c(Cl)c2)nc(N2CCC[C@H]2C)n1 [Example 940, 4-(3-chloro-4-fluorophenyl)-6-[(2R)-4-(3-chloropyridin-2-yl)-2-methylpiperazin-1-yl]-2-[(2R)-2-methylpyrrolidin-1-yl]pyrimidine]
C[C@@H]1CCCN1c1cc(-c2ccc(F)c(Cl)c2)nc(N2CCN(c3ncccc3Cl)C[C@H]2C)n1 [Example 941, 4-(3-chloro-4-fluorophenyl)-2-[(2R)-4-(3-chloropyridin-2-yl)-2-methylpiperazin-1-yl]-6-[(2R)-2-methylpyrrolidin-1-yl]pyrimidine]
C[C@@H]1CN(c2nccnc2Cl)CCN1c1cc(-c2ccc(F)c(Cl)c2)nc(N2CCC[C@H]2C)n1 [Example 942, 4-(3-chloro-4-fluorophenyl)-6-[(2R)-4-(3-chloropyrazin-2-yl)-2-methylpiperazin-1-yl]-2-[(2R)-2-methylpyrrolidin-1-yl]pyrimidine]
C[C@H]1CN(c2ncccc2Cl)CCN1c1cc(-c2ccc(F)c(Cl)c2)nc(Cl)n1 [Example 944, 2-chloro-4-(3-chloro-4-fluorophenyl)-6-[(2S)-4-(3-chloropyridin-2-yl)-2-methylpiperazin-1-yl]pyrimidine]
C[C@@H]1CCCN1c1nc(-c2ccc(F)c(Cl)c2)cc(N2CCN(c3ncccc3Cl)C[C@@H]2C)n1 [Example 945, 4-(3-chloro-4-fluorophenyl)-6-[(2S)-4-(3-chloropyridin-2-yl)-2-methylpiperazin-1-yl]-2-[(2R)-2-methylpyrrolidin-1-yl]pyrimidine]
C[C@H]1CN(c2ncccc2Cl)CCN1c1cc(-c2ccc(F)c(Cl)c2)nc(N2CCCC2)n1 [Example 946, 4-(3-chloro-4-fluorophenyl)-6-[(2S)-4-(3-chloropyridin-2-yl)-2-methylpiperazin-1-yl]-2-pyrrolidin-1-ylpyrimidine]
C[C@H]1CN(c2ncccc2Cl)CCN1c1cc(-c2ccc(F)c(Cl)c2)nc(N2CCOCC2)n1 [Example 947, 4-{4-(3-chloro-4-fluorophenyl)-6-[(2S)-4-(3-chloropyridin-2-yl)-2-methylpiperazin-1-yl]pyrimidin-2-yl}morpholine]
C[C@@H]1CCCN1c1cc(-c2ccc(F)c(Cl)c2)nc(N2CCN(c3ncccc3Cl)C[C@@H]2C)n1 [Example 948, 4-(3-chloro-4-fluorophenyl)-2-[(2S)-4-(3-chloropyridin-2-yl)-2-methylpiperazin-1-yl]-6-[(2R)-2-methylpyrrolidin-1-yl]pyrimidine]
C[C@@H]1CCCN1c1cc(-c2ccc(F)c(F)c2)nc(N2CCN(c3ncccc3Cl)C[C@@H]2C)n1 [Example 949, 2-[(2S)-4-(3-chloropyridin-2-yl)-2-methylpiperazin-1-yl]-4-(3,4-difluorophenyl)-6-[(2R)-2-methylpyrrolidin-1-yl]pyrimidine]
C[C@@H]1CCCN1c1cc(-c2ccc(F)c(F)c2)nc(N2CCN(c3nccnc3Cl)C[C@@H]2C)n1 [Example 950, 2-[(2S)-4-(3-chloropyrazin-2-yl)-2-methylpiperazin-1-yl]-4-(3,4-difluorophenyl)-6-[(2R)-2-methylpyrrolidin-1-yl]pyrimidine]
C[C@@H]1CCCN1c1nc(-c2ccc(F)c(F)c2)cc(N2CCN(c3nccnc3Cl)C[C@@H]2C)n1 [Example 951, 4-[(2S)-4-(3-chloropyrazin-2-yl)-2-methylpiperazin-1-yl]-6-(3,4-difluorophenyl)-2-[(2R)-2-methylpyrrolidin-1-yl]pyrimidine]
C[C@H]1CN(c2ncccc2Cl)CCN1c1cc(-c2ccc(Cl)c(F)c2)nc(Cl)n1 [Example 953, 2-chloro-4-(4-chloro-3-fluorophenyl)-6-[(2S)-4-(3-chloropyridin-2-yl)-2-methylpiperazin-1-yl]pyrimidine]
COc1ccc(Cl)c(N2CCN(c3cc(-c4ccc(F)cc4)nc(N4CCCC4C)n3)[C@H](C)C2)n1 (stereo partly drawn) [Example 955, 4-[4-(3-chloro-6-methoxypyridin-2-yl)-2-methylpiperazin-1-yl]-6-(4-fluorophenyl)-2-(2-methylpyrrolidin-1-yl)pyrimidine]
C[C@H]1CN(c2nccnc2Cl)CCN1c1cc(-c2ccc(Cl)c(F)c2)nc(Cl)n1 [Example 956, 2-chloro-4-(4-chloro-3-fluorophenyl)-6-[(2S)-4-(3-chloropyrazin-2-yl)-2-methylpiperazin-1-yl]pyrimidine]
C[C@H]1CN(c2ncccc2Cl)CCN1c1cc(-c2ccc(Cl)c(F)c2)nc(N2CCCC2)n1 [Example 957, 4-(4-chloro-3-fluorophenyl)-6-[(2S)-4-(3-chloropyridin-2-yl)-2-methylpiperazin-1-yl]-2-pyrrolidin-1-ylpyrimidine]
C[C@@H]1CCCN1c1nc(-c2ccc(Cl)c(F)c2)cc(N2CCN(c3ncccc3Cl)C[C@@H]2C)n1 [Example 958, 4-(4-chloro-3-fluorophenyl)-6-[(2S)-4-(3-chloropyridin-2-yl)-2-methylpiperazin-1-yl]-2-[(2R)-2-methylpyrrolidin-1-yl]pyrimidine]
C[C@H]1CN(c2ncccc2Cl)CCN1c1cc(-c2ccc(Cl)c(F)c2)nc(N2CCOCC2)n1 [Example 959, 4-{4-(4-chloro-3-fluorophenyl)-6-[(2S)-4-(3-chtoropyridin-2-yl)-2-methylpiperazin-1-yl]pyrimidin-2-yl}morpholine]
C[C@@H]1CCCN1c1cc(-c2ccc(Cl)c(F)c2)nc(N2CCN(c3ncccc3Cl)C[C@@H]2C)n1 [Example 960, 4-(4-chloro-3-fluorophenyl)-2-[(2S)-4-(3-chloropyridin-2-yl)-2-methylpiperazin-1-yl]-6-[(2R)-2-methylpyrrolidin-1-yl]pyrimidine]
C[C@H]1CN(c2nccnc2Cl)CCN1c1cc(-c2ccc(Cl)c(F)c2)nc(N2CCCC2)n1 [Example 961, 4-(4-chloro-3-fluorophenyl)-6-[(2S)-4-(3-chloropyrazin-2-yl)-2-methylpiperazin-1-yl]-2-pyrrolidin-1-ylpyrimidine]
C[C@H]1CN(c2nccnc2Cl)CCN1c1cc(-c2ccc(Cl)c(F)c2)nc(N2CCOCC2)n1 [Example 962, 4-{4-(4-chloro-3-fluorophenyl)-6-[(2S)-4-(3-chloropyrazin-2-yl)-2-methylpiperazin-1-yl]pyrimidin-2-yl}morpholine]
C[C@@H]1CCCN1c1cc(-c2ccc(Cl)c(F)c2)nc(N2CCN(c3nccnc3Cl)C[C@@H]2C)n1 [Example 963, 4-(4-chloro-3-fluorophenyl)-2-[(2S)-4-(3-chloropyrazin-2-yl)-2-methylpiperazin-1-yl]-6-[(2R)-2-methylpyrrolidin-1-yl]pyrimidine]
COc1ncc(Cl)c(N2CCN(c3cc(-c4ccc(F)cc4)nc(Cl)n3)[C@H](C)C2)n1 [Example 965, 5-chloro-4-{(3R)-4-[2-chloro-6-(4-fluorophenyl)pyrimidin-4-yl]-3-methylpiperazin-1-yl}-2-methoxypyrimidine]
COc1ncc(Cl)c(N2CCN(c3cc(-c4ccc(F)cc4)nc(N4CCC[C@H]4C)n3)[C@H](C)C2)n1 [Example 966, 5-chloro-4-((3R)-4-{6-(4-fluorophenyl)-2-[(2R)-2-methylpyrrolidin-1-yl]pyrimidin-4-yl}-3-methylpiperazin-1-yl)-2-methoxypyrimidine]
COc1ncc(Cl)c(N2CCN(c3cc(-c4ccc(F)cc4)nc(N4CCCC4)n3)[C@H](C)C2)n1 [Example 967, 5-chloro-4-{(3R)-4-[6-(4-fluorophenyl)-2-pyrrolidin-1-ylpyrimidin-4-yl]-3-methylpiperazin-1-yl}-2-methoxypyrimidine]
COc1ncc(Cl)c(N2CCN(c3nc(-c4ccc(F)cc4)cc(N4CCC[C@H]4C)n3)[C@H](C)C2)n1 [Example 968, 5-chloro-4-((3R)-4-{4-(4-fluorophenyl)-6-[(2R)-2-methylpyrrolidin-1-yl]pyrimidin-2-yl}-3-methylpiperazin-1-yl)-2-methoxypyrimidine]
CC1CCCN1c1nc(-c2ccc(F)cc2)cc(N2CCN(c3nc(O)ccc3Cl)C[C@H]2C)n1 (stereo partly drawn) [Example 970, 5-chloro-6-{4-[6-(4-fluorophenyl)-2-(2-methylpyrrolidin-1-yl)pyrimidin-4-yl]-3-methylpiperazin-1-yl}pyridin-2-ol]
